Test results taken from US20150164762A1, “USE OF ETHANOLAMINE PHOSPHATE” (priority 2012, published 2015).

Key:
BEAS-2B [1] = assay: Suppression of the proliferative effect of EP by a MEK 1/2 inhibitor (WST-8); format: cell-based, human; settings: 250 μM EP, no MEK 1/2 inhibitor, 0.1% FBS, 72 hours
THP-1 = assay: WST-8 proliferation test, THP-1 floating cells; format: cell-based, human; settings: 0% FBS, 72 hours, high concentrations of 125 μM or more
Procedure: THP-1 (human acute monocytic leukemia cells) and HL-60 (human myeloid leukemia cells) were logarithmically growth cultured in 10% FBS RPMI-1640 to 2 to 10×10^5 cells/cm^2 to achieve logarithmic growth before EP administration. The cell culture liquid was then centrifuged and precipitated at 1000 rpm, and 90 μl per well was dispensed onto a 96-well plate to 2×10^4 cells/cm^2 in 0% FBS RPMI-1640. […] For the WST-8 assay of the floating cells, 10 μl per well of WST-8 assay reagent was added directly to the cell suspension during culture, and after 1 hour absorbance at 450 nm and 600 nm was measured with a plate reader and the data were analyzed as in the examples above.

BEAS-2B [2] = assay: Proliferative effects of EP and its metabolic derivatives (WST-8); format: cell-based, human; settings: 0.1% FBS, 72 hours
HEKa cells = assay: Transepithelial electrical resistance (TER), HEKa; format: cell-based, human; settings: 1 mM EP
Procedure: HEKa cells were seeded to 6×10^4 cells/cm^2 on a cell culture insert (353104, BD Falcon). Culture was performed in complete medium consisting of HKGS Kit (S-001-K, Invitrogen) added to Epilife basal medium (M-EPI-500-CA, Invitrogen), and once confluence was reached, a medium containing […] the specific compounds listed under Conditions 1 to 3 above was substituted for the complete medium, and medium replacement was performed once a day. TER was measured as in Example 11.

BEAS-2B [3] = assay: Permeability test, 4-kilodalton fluorescent dextran through BEAS-2B cell sheet (Papp); format: cell-based, human; settings: EP 1 mM, 7 days after seeding
Procedure: Cells of the established normal human airway epithelial cell line BEAS-2B were seeded to 1×10^5 cells/cm^2 on a cell culture insert (353104, BD Falcon) (FIG. 14). 10% FBS RPMI-1640 was used as the medium. The amount of medium was 200 μl on the insert side and 750 μl on the well side. Beginning the next day, substitution/medium replacement was performed once a day with 1% FBS RPMI-1640 prepared with the following 4 reagent conditions, and transepithelial electrical resistance (TER) was measured with MilliCell (Millipore). • Condition 1: Control • Condition 2: EP 1 mM • Condition 3: Dexamethasone 1 μM (dexamethasone (Dex): positive control substance known to enhance barrier function) • Condition 4: EP 1 mM and Dex 1 μM
7 days after cell seeding a permeability test was performed as follows.
A 4-kilodalton fluorescent dextran molecule (Sigma) was added to the cell culture insert to a concentration of 0.1 mg/ml, 20 μl of the medium on the well side was removed after 1 hour, and the amount of permeating fluorescent dextran was estimated from the fluorescent strength at each concentration. The permeation rate Papp of a substance from the insert side to the well side is normally determined by the following formula.
Papp=(volume of medium on well side/insert area×initial insert concentration)×(altered concentration on well side/elapsed time)

TNF-α = assay: ELISA of TNF-α secreted from THP-1 cells, with or without LPS; format: cell-based, human
Procedure: Human monocytic cultured THP-1 cells were cultured logarithmically as follows in 10% FBS RPMI-1640 growth culture. Cells were seeded to 4×10^5/ml on a 24-well plate (500 μl/well), additional growth culture containing EP was added, and finally the EP concentration was adjusted to the target concentration (0.1 mM, 1 mM). 2 hours after EP administration, further growth medium containing lipopolysaccharides (LPS) was added, and adjusted to concentrations of 0.1 μg/ml and 1 μg/ml.
4 hours and 24 hours after lipopolysaccharide administration, the medium was collected, the cells were precipitated by centrifugation, and the supernatant was used as an ELISA sample. As in the Singh et al. report, the inflammatory cytokine TNF-α and the chemokine IL-8, which attracts inflammatory cells, were used as ELISA measurement indicators.

A549 = assay: WST-8 proliferation test, A549 cancer cells; format: cell-based, human; settings: 0% FBS, 96 hours, even at high concentrations
Procedure: 0% FBS RPMI-1640 was used as the medium. 24 hours after seeding the cells were washed with 20 μl per well of PBS, and the medium was replaced with 0% FBS RPMI-1640. Following medium replacement, EP solution with 10 times the set concentration was added 10 μl per well, and a proliferation test (WST-8 assay) was performed 96 hours after addition of EP.

NHLF cells = assay: WST-8 proliferation test, primary normal human lung fibroblasts (NHLF); format: cell-based; settings: 0% FBS DMEM, 124 hours
Source text: 10% FBS-DMEM was used as the medium.

BEAS-2B cells = assay: WST-8 proliferation test, BEAS-2B cells at different FBS concentrations; format: cell-based, human
Procedure: 10% FBS RPMI-1640 was used as the medium. […] Following medium replacement, 10 μl/well of EP solution was added. A proliferation test (WST-8 assay) was performed after 96 hours. The operations of the WST-8 assay were as follows.
(1) The medium was removed from the 96-well plate by decantation and tapping.
(2) WST-8 reagent (Dojindo) was mixed to a ratio of 1:10 with serum-free medium (RPMI-1640) that had been warmed in advance at 37° C., and added to the wells from which the medium had been removed.
(3) A color reaction was performed for 1 hour in a CO2 incubator, and absorbance at 450 nm and 650 nm was measured with an absorbance plate reader.
(4) Absorbance at 450 nm-absorbance at 650 nm was calculated for purposes of correction between plates.
(5) The average of the 4 blank wells was subtracted from the corrected value of all wells, and the result was given as the relative corresponding cell number.

HHDPC cells = assay: WST-8 proliferation test, primary normal human hair dermal papilla cells (HHDPC)
Procedure: HHDPC cells (Cosmo Bio) were seeded to 1×10^4 cells/cm^2 on a 96-well plate. Complete MSCM medium (500, ScienCell) was used as the medium. After 24 hours, the cells were washed gently with 200 μl per well of PBS, the medium was replaced with 90 μl per well of 0% FBS DMEM with 1 vol % of complete MSCM medium added thereto, and the cells were cultured for 24 hours. After culture, 10 μl per well of EP solution was added, and a proliferation test (WST-8 assay) was performed 6 days after EP administration. The WST-8 assay was performed as in Example 1. The same test was performed using minoxidil, which has a clinical hair growth effect.

Structure (SMILES): NCCOP(=O)(O)O [EP, Ethanolamine phosphate]
- cell proliferation (BEAS-2B [1]): roughly 3 fold
- cell proliferation effect (THP-1): small cell proliferation effect
- proliferative action (BEAS-2B [2]): dose-dependent proliferative action
- rise in TER value relative to the control (HEKa cells): 2.3 fold
- permeation rate Papp of fluorescent dextran, lower than control (BEAS-2B [3]): 25%
- secretion of LPS-induced TNF-α (TNF-α; 4 hours and 24 hours of stimulus, EP 0.1 mM, 1 mM): dose-dependently suppressed
- amount of TNF-α induced by LPS stimulus (TNF-α; LPS 1 μg/ml, 24 hours of stimulus, EP 1 mM): about 70 pg/ml
- TNF-α secretion, reduced to % of untreated (TNF-α; cells not treated with LPS, 26 hours, 1 mM EP): about 78%
- cell proliferation ability (A549): absolutely no cell proliferation ability
- growth-stimulating effect (NHLF cells): growth-stimulating effect
- proliferation of BEAS-2B cells (BEAS-2B cells; 0-0.5% FBS, 96 hours): dependent on EP concentration
- toxicity attributable to EP (BEAS-2B cells; high-concentration range (mM level)): no obvious toxicity
- cell proliferation, ratio relative to control using 0 μM EP (BEAS-2B cells; medium contains no FBS, 96 hours): ≤ 11 times
- effective concentration range for proliferative effect (HHDPC cells; 6 days): very broad concentration range
- proliferative effect (HHDPC cells; 6 days): equal to or greater than that of minoxidil
- cell toxicity (HHDPC cells; high concentrations): non-toxic
